Experimental data taken from patent US9265771B2, “Method for treating Lyme disease” (Zoetis Services LLC, priority 2012, dated 2016).

Key:
Format in all cases: in vivo, beagle dogs
B. burgdorferi [1] = assay: Study B: SNAP-4Dx ELISA in tick-infected dogs; details: N = 8/group
Description: (§1) Three outer surface proteins (Osp) on B. burgdorferi are important for diagnosis and prevention, and are expressed by the organism in response to its local environment. […] OspF is another surface protein that is generally observed in late-stage disease. The C in […] refers to a 25-amino acid, C6 peptide in the sixth invariable region of an outer membrane lipoprotein (VIsE). Antibody against C6 is highly accurate as a serologic diagnosis of Lyme disease independent of a subject's (e.g., canine) vaccination status. Further, the generation of C6 antibodies implies an active infection with viable spirochetes. Serological methods for detecting B. burgdorfer/Lyme disease were conducted using the IDEXX qualitative SNAP-4Dx ELISA and the Quantitative C6 (Quant C6 or QC6) diagnostic kits, which are enzyme linked immunosorbent assays against the previously described 25-amino-acid C6 peptide. QC6 ELISA data, units/mL, are useful for guidance in initiating and evaluating response to therapy (See Levy S A, O'Connor T P, Hanscom J L, Shields P, et al. Quantitative measurement of a C6 antibody following antibiotic treatment of Borrelia burgdorferi antibody-positive, nonclinical dogs. Clin Vacc Immunol 2008; 15(1):115-119 and Littman M P, Goldstein R E, Labato M A, et al. ACVIM Small Animal Concensus Statement on Lyme Disease in Dogs: Diagnosis, Treatment and Prevention. J Vet Intern Med 2006; 20: 422-434).
(§2) Thirty-two (18 male and 14 female) beagle dogs were sero-negative for Borrelia burgdorferi, not vaccinated with any Borrelia spp vaccines, and acclimated at the study facility for seven days. The study was conducted under National Research Council guidelines (1996). […] Field-caught Ixodes from the northeast USA were placed on the dogs without containment chambers for 10 days; after ticks fed to repletion, dogs were treated with two applications of an approved topical acaricide with a 30-day interval between applications.
(§3) Forty days post-challenge, and prior to antibiotic treatments, blood was collected from each dog as were two skin biopsy punch samples near tick attachment sites. Blood was collected approximately monthly post-treatment. Skin biopsies were taken near the tick attachment site on Days 48/49, 118, 146, 180, and 315. Serum antibodies to Borrelia were assayed using the IDEXX SNAP-4Dx and QC6 ELISA. In cooperation with Cornell University, serum samples were analyzed using fluorescent-bead-based multiplex assays detecting antibodies against B. burgdorferi outer surface proteins OspA, OspC, and OspF. Data were expressed as median fluorescent intensities (MFI), and shown to be specific and sensitive to provide interpretative guidelines regarding infection. The skin biopsies were collected for a polymerase chain reaction (PCR; FlaB) assay and cultured for spirochete detection. At the end of the study, blood and skin biopsies were collected and synovial tissue from the joints were harvested at necropsy.
(§4) On Day 75 and Day 89 Convenia was administered to the eight dogs in T04 (8 mg/kg bodyweight; subcutaneous injection). The other treated groups received their respective regimens daily and orally for 30 days from Days 75 to 104. […] Dogs in T01 served as infected, untreated, controls. Inter-treatment comparisons to evaluate antibiotic efficacy included clinical signs, serology, culture results and pathology.

B. burgdorferi [2] = assay: Study B: QC6 ELISA in tick-infected dogs; details: 8 dogs/group
Description: as §1, §2, §3, §4

[3] = test system: B. burgdorferi outer surface protein OspF; assay: Study B: fluorescent-bead-based multiplex assay, antibodies against OspF; details: for Multiplex Assay OspF: No. Dogs > Positive Threshold (# dogs > 1500): 8 dogs/group
Description: as §2
as §3, with “Data were expressed as median fluorescent intensities (MFI), and shown to be specific and sensitive to provide interpretative guidelines regarding infection.” left out
On Day 75 and Day 89 Convenia was administered to the eight dogs in T04 (8 mg/kg bodyweight; subcutaneous injection). The other treated groups received their respective regimens daily and orally for 30 days from Days 75 to 104. […] Dogs in T01 served as infected, untreated, controls.

B. burgdorferi [4] = assay: Study B: microscopic examination of joints and skin at necropsy; details: for Number of Joints with Changes as Described for Lyme disease: N = 8
Description: as §2, §3, §4
At necropsy ten joints were harvested per each dog, formalin-fixed, stained and examined microscopically. Joints included the carpus, elbow, shoulder, stifle and tarsus on both the right and left limbs. Further, a section of skin near tick attachment sites was evaluated from each dog. There were two dogs in the Convenia group (25%) with tissues showing changes as described for Lyme disease, compared to seven controls (87.5%) and three (37.5%) to four (50.0%) dogs in the other antibiotic-treated groups (Table 7). […] The Convenia group had the lowest incidence of joint changes with six affected of 80.

[5] = joints, skin, 8 dogs/group, necropsy

With C[C@H]1c2cccc(O)c2C(=O)C2=C(O)[C@]3(O)C(=O)C(C(N)=O)=C(O)[C@@H](N(C)C)[C@@H]3[C@@H](O)[C@@H]21 [doxycycline] the “SNAP-4Dx Positives, Number of Dogs” value (B. burgdorferi [1]; Day 48 (pre-treatment; antibiotics from Day 75)) was 6, the “SNAP-4Dx Positives, Number of Dogs” value (B. burgdorferi [1]; Day 111) was 7 and the “SNAP-4Dx Positives, Number of Dogs” value (B. burgdorferi [1]; Day 145) was 6. For the same compound, the “SNAP-4Dx Positives, Number of Dogs” value (B. burgdorferi [1]; Day 179) was 1, the “SNAP-4Dx Positives, Number of Dogs” value (B. burgdorferi [1]; Day 221) was 0 and the “SNAP-4Dx Positives, Number of Dogs” value (B. burgdorferi [1]; Day 251) was 0. For the same compound, the “SNAP-4Dx Positives, Number of Dogs” value (B. burgdorferi [1]; Day 281) was 0, the “SNAP-4Dx Positives, Number of Dogs” value (B. burgdorferi [1]; Day 315) was 0 and the “SNAP-4Dx Positives, Number of Dogs” value (B. burgdorferi [1]; Day −15 (pre-infection)) was 0. For the same compound, the “Dogs Sero-converted to B. burgdorferi per QC6 ELISA (≧30 U/mL), (%)” value (B. burgdorferi [2]; Day 48 (pre-treatment)) was 75.0%, the “Number of Dogs Sero-converted to B. burgdorferi per QC6 ELISA (≧30 U/mL), No.” value (“Number … per QC6 ELISA (≧30 U/mL), No.” below) (B. burgdorferi [2]; Day 48 (pre-treatment)) was 6 and the “Dogs Sero-converted to B. burgdorferi per QC6 ELISA (≧30 U/mL), (%)” value (B. burgdorferi [2]; Day 111) was 62.5%. The “Number … per QC6 ELISA (≧30 U/mL), No.” value (B. burgdorferi [2]; Day 111) was 5, the “Dogs Sero-converted to B. burgdorferi per QC6 ELISA (≧30 U/mL), (%)” value (B. burgdorferi [2]; Day 145) was 0.0% and the “Number … per QC6 ELISA (≧30 U/mL), No.” value (B. burgdorferi [2]; Day 145) was 0. The “Dogs Sero-converted to B. burgdorferi per QC6 ELISA (≧30 U/mL), (%)” value (B. burgdorferi [2]; Day 179) was 0.0%, the “Number … per QC6 ELISA (≧30 U/mL), No.” value (B. burgdorferi [2]; Day 179) was 0 and the “Dogs Sero-converted to B. burgdorferi per QC6 ELISA (≧30 U/mL), (%)” value (B. burgdorferi [2]; Day 221) was 0.0%. The “Number … per QC6 ELISA (≧30 U/mL), No.” value (B. burgdorferi [2]; Day 221) was 0, the “Dogs Sero-converted to B. burgdorferi per QC6 ELISA (≧30 U/mL), (%)” value (B. burgdorferi [2]; Day 251) was 0.0% and the “Number … per QC6 ELISA (≧30 U/mL), No.” value (B. burgdorferi [2]; Day 251) was 0. For the same compound, the “Dogs Sero-converted to B. burgdorferi per QC6 ELISA (≧30 U/mL), (%)” value (B. burgdorferi [2]; Day 281) was 0.0%, the “Number … per QC6 ELISA (≧30 U/mL), No.” value (B. burgdorferi [2]; Day 281) was 0 and the “Dogs Sero-converted to B. burgdorferi per QC6 ELISA (≧30 U/mL), (%)” value (B. burgdorferi [2]; Day 314) was 0.0%. For the same compound, the “Number … per QC6 ELISA (≧30 U/mL), No.” value (B. burgdorferi [2]; Day 314) was 0, the “Multiplex Assay OspF: MFI Mean” value ([3]; Day 48 (pre-treatment)) was 943.38 MFI and the “Multiplex Assay OspF: No. Dogs > Positive Threshold (# dogs > 1500)” value ([3]; Day 48 (pre-treatment)) was 1. The “Multiplex Assay OspF: MFI Mean” value ([3]; Day 111) was 1174.38 MFI, the “Multiplex Assay OspF: No. Dogs > Positive Threshold (# dogs > 1500)” value ([3]; Day 111) was 1 and the “Multiplex Assay OspF: MFI Mean” value ([3]; Day 145) was 490.63 MFI. For the same compound, the “Multiplex Assay OspF: No. Dogs > Positive Threshold (# dogs > 1500)” value ([3]; Day 145) was 0, the “Multiplex Assay OspF: MFI Mean” value ([3]; Day 179) was 395.88 MFI and the “Multiplex Assay OspF: No. Dogs > Positive Threshold (# dogs > 1500)” value ([3]; Day 179) was 0. For the same compound, the “Multiplex Assay OspF: MFI Mean” value ([3]; Day 221) was 334.75 MFI, the “Multiplex Assay OspF: No. Dogs > Positive Threshold (# dogs > 1500)” value ([3]; Day 221) was 0 and the “Multiplex Assay OspF: MFI Mean” value ([3]; Day 251) was 340.88 MFI. For the same compound, the “Multiplex Assay OspF: No. Dogs > Positive Threshold (# dogs > 1500)” value ([3]; Day 251) was 0, the “Multiplex Assay OspF: MFI Mean” value ([3]; Day 281) was 343.63 MFI and the “Multiplex Assay OspF: No. Dogs > Positive Threshold (# dogs > 1500)” value ([3]; Day 281) was 0. The “Multiplex Assay OspF: MFI Mean” value ([3]; Day 314) was 353.25 MFI, the “Multiplex Assay OspF: No. Dogs > Positive Threshold (# dogs > 1500)” value ([3]; Day 314) was 0 and the “Multiplex Assay OspF: MFI Mean” value ([3]; Day −15 (pre-infection)) was 113.50 MFI. For the same compound, the “Multiplex Assay OspF: No. Dogs > Positive Threshold (# dogs > 1500)” value ([3]; Day −15 (pre-infection)) was 0, the “Number of Joints with Changes as Described for Lyme disease, Cumulative” value (B. burgdorferi [4]; 80 total/group) was 11 and the “Number of Joints with Changes as Described for Lyme disease” value (B. burgdorferi [4]; Carpus L) was 1. For the same compound, the “Number of Joints with Changes as Described for Lyme disease” value (B. burgdorferi [4]; Carpus R) was 2, the “Number of Joints with Changes as Described for Lyme disease” value (B. burgdorferi [4]; Elbow L) was 1 and the “Number of Joints with Changes as Described for Lyme disease” value (B. burgdorferi [4]; Elbow R) was 1. For the same compound, the “Number of Joints with Changes as Described for Lyme disease” value (B. burgdorferi [4]; Shoulder L) was 1, the “Number of Joints with Changes as Described for Lyme disease” value (B. burgdorferi [4]; Shoulder R) was 0 and the “Number of Joints with Changes as Described for Lyme disease” value (B. burgdorferi [4]; Stifle L) was 1. For the same compound, the “Number of Joints with Changes as Described for Lyme disease” value (B. burgdorferi [4]; Stifle R) was 2, the “Number of Joints with Changes as Described for Lyme disease” value (B. burgdorferi [4]; Tarsus L) was 2 and the “Number of Joints with Changes as Described for Lyme disease” value (B. burgdorferi [4]; Tarsus R) was 0. For the same compound, the “No Tissue Changes, # Dogs” value (B. burgdorferi [4]; [5]) was 5, the “No Tissue Changes, %” value (B. burgdorferi [4]; [5]) was 62.5% and the “Tissue Changes Described for Lyme Disease, # Dogs” value (B. burgdorferi [4]; [5]) was 3. The “Tissue Changes Described for Lyme Disease, %” value (B. burgdorferi [4]; [5]) was 37.5%.
